Measurements published in the kinase profiling compilation of Christmann-Franck et al. (2016).

Legend:
Experiment in all cases: radiometric filter-binding kinase assay, Kinase HotSpot
Details in all cases: compound 0.5 µM; ATP 10 µM
[1] = target: ABL2 (human) (UniProt P42684)
[2] = target: CAMK2D (human) (UniProt Q13557)
[3] = target: CDK4 CCND1 (human) (UniProt P24385+P11802)
[4] = target: CHEK1 (human) (UniProt O14757)
[5] = target: CLK4 (human) (UniProt Q9HAZ1)
[6] = target: CSNK1A1 (human) (UniProt P48729)
[7] = target: CSNK1G3 (human) (UniProt Q9Y6M4)
[8] = target: CSNK2A2 (human) (UniProt P19784)
[9] = target: DYRK1B (human) (UniProt Q9Y463)
[10] = target: DYRK4 (human) (UniProt Q9NR20)
[11] = target: EPHB1 (human) (UniProt P54762)
[12] = target: IKBKB (human) (UniProt O14920)
[13] = target: IRAK1 (human) (UniProt P51617)
[14] = target: JAK1 JH1 catalytic (human) (UniProt P23458)
[15] = target: JAK2 JH1 JH2 (human) (UniProt O60674)
[16] = target: MAPK11 (human) (UniProt Q15759)
[17] = target: MAPK3 (human) (UniProt P27361)
[18] = target: MAPKAPK5 (human) (UniProt Q8IW41)
[19] = target: MARK4 (human) (UniProt Q96L34)
[20] = target: NUAK1 (human) (UniProt O60285)
[21] = target: PAK4 (human) (UniProt O96013)
[22] = target: PAK7 (human) (UniProt Q9P286)
[23] = target: PIM3 (human) (UniProt Q86V86)
[24] = target: PRKCB2 (human) (UniProt P05771)
[25] = target: PRKCD (human) (UniProt Q05655)
[26] = target: PRKCH (human) (UniProt P24723)
[27] = target: PRKD2 (human) (UniProt Q9BZL6)
[28] = target: ROCK1 (human) (UniProt Q13464)
[29] = target: ROCK2 (human) (UniProt O75116)
[30] = target: ROS1 (human) (UniProt P08922)
[31] = target: SIK2 (human) (UniProt Q9H0K1)
[32] = target: STK17A (human) (UniProt Q9UEE5)
[33] = target: STK39 (human) (UniProt Q9UEW8)
[34] = target: TBK1 (human) (UniProt Q9UHD2)
[35] = target: TSSK2 (human) (UniProt Q96PF2)
[36] = target: ABL1 (human) (UniProt P00519)
[37] = target: MAP3K11 (human) (UniProt Q16584)
[38] = target: MAPK10 (human) (UniProt P53779)
[39] = target: MAPK8 (human) (UniProt P45983)

Chain of JAK1 JH1 catalytic (human) (P23458 whole entry, looked up): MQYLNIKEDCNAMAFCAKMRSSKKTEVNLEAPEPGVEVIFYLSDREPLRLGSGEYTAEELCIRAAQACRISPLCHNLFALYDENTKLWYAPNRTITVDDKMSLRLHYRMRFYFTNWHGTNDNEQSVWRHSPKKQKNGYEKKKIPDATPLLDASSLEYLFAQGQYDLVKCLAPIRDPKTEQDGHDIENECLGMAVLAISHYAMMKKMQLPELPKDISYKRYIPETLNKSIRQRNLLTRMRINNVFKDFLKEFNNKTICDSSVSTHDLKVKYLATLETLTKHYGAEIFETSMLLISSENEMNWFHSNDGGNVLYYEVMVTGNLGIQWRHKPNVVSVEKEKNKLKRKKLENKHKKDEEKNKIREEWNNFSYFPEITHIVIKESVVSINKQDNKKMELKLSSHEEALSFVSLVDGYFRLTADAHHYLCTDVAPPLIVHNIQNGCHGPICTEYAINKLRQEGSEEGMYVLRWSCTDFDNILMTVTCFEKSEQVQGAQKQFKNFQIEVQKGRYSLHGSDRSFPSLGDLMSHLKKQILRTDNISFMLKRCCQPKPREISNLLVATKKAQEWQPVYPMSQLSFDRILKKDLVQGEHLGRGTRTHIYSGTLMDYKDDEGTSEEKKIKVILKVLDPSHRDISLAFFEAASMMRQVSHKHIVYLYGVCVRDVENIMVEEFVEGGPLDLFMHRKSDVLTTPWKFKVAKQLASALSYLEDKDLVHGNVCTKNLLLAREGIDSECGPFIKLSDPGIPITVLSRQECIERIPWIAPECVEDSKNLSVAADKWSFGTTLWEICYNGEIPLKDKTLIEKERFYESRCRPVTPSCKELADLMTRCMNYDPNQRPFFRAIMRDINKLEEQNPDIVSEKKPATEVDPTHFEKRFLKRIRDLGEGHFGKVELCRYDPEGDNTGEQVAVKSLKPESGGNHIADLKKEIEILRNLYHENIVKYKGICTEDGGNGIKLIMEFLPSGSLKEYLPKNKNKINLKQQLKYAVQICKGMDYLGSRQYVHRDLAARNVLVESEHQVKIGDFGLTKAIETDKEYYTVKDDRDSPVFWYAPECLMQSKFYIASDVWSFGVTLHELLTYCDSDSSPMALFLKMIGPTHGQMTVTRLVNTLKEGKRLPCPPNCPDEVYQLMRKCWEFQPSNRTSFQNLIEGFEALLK
Chain of IKBKB (human) (O14920 whole entry, looked up): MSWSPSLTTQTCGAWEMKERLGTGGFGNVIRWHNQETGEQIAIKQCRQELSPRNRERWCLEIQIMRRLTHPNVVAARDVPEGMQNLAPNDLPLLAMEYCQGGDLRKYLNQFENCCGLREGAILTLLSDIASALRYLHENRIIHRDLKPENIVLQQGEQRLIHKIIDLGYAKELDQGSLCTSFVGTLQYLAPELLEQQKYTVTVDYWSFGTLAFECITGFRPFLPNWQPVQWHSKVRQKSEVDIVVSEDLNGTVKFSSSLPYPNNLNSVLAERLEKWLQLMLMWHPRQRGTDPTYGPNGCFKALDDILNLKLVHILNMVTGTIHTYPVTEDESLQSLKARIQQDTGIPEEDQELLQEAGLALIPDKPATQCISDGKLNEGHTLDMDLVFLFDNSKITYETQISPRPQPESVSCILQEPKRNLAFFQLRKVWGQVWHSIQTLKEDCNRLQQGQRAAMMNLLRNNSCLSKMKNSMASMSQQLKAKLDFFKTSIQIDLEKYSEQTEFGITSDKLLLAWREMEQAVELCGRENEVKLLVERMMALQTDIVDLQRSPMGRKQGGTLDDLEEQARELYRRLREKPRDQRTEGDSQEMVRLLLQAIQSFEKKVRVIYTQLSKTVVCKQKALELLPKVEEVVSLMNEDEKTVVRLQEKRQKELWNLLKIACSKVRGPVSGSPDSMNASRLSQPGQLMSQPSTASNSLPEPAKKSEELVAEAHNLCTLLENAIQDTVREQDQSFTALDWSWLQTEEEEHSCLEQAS
Chain of CSNK2A2 (human) (P19784 whole entry, looked up): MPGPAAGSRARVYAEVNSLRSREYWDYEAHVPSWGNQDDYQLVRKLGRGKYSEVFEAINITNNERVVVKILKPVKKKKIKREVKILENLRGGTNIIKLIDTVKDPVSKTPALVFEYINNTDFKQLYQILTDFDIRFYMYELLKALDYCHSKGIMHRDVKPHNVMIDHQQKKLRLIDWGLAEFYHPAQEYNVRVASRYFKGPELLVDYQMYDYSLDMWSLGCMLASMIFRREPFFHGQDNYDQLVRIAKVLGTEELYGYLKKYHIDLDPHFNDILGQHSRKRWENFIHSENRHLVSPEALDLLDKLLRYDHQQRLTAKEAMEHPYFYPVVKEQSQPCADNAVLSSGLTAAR
Chain of DYRK4 (human) (Q9NR20 whole entry, looked up): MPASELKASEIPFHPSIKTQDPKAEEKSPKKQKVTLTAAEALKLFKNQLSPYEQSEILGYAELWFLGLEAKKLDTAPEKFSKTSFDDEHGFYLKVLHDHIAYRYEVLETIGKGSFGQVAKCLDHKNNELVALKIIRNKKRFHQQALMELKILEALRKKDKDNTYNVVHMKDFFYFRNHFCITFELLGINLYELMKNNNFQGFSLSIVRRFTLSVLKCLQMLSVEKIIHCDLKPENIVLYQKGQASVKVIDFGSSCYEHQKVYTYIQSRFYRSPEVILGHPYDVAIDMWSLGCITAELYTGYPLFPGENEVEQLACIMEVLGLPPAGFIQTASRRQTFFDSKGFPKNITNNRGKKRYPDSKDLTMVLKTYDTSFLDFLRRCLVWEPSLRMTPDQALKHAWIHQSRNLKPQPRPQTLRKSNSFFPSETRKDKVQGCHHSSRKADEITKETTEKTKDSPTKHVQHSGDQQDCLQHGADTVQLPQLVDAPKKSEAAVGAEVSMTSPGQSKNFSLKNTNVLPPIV
Chain of MAPK11 (human) (Q15759 whole entry, looked up): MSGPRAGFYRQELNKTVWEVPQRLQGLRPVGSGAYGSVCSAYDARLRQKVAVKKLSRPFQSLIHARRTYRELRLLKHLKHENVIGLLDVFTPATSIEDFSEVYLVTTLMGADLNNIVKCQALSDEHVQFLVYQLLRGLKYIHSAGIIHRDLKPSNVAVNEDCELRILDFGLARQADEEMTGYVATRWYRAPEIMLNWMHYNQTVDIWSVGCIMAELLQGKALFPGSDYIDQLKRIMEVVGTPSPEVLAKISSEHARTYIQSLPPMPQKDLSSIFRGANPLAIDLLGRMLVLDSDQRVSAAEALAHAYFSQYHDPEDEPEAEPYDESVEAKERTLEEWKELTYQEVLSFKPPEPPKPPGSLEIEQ
Chain of TBK1 (human) (Q9UHD2 whole entry, looked up): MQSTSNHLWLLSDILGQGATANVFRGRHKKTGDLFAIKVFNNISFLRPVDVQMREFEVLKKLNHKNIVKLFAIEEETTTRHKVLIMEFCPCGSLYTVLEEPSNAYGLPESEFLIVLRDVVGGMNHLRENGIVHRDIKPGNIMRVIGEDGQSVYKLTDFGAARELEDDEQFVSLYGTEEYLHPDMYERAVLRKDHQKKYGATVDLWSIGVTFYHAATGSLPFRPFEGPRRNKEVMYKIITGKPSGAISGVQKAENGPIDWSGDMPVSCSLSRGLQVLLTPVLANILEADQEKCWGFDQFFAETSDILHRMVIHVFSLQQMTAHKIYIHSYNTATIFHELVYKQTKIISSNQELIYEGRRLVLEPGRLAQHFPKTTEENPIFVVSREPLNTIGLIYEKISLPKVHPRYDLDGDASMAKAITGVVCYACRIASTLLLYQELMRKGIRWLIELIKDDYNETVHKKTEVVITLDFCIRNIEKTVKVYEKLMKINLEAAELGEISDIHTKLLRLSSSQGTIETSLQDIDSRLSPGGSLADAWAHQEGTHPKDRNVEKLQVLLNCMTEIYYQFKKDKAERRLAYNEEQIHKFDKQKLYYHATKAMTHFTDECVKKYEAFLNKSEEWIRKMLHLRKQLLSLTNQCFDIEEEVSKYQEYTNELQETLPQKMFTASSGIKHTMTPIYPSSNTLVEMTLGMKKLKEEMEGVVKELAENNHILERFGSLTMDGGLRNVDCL
Chain of PAK7 (human) (Q9P286 whole entry, looked up): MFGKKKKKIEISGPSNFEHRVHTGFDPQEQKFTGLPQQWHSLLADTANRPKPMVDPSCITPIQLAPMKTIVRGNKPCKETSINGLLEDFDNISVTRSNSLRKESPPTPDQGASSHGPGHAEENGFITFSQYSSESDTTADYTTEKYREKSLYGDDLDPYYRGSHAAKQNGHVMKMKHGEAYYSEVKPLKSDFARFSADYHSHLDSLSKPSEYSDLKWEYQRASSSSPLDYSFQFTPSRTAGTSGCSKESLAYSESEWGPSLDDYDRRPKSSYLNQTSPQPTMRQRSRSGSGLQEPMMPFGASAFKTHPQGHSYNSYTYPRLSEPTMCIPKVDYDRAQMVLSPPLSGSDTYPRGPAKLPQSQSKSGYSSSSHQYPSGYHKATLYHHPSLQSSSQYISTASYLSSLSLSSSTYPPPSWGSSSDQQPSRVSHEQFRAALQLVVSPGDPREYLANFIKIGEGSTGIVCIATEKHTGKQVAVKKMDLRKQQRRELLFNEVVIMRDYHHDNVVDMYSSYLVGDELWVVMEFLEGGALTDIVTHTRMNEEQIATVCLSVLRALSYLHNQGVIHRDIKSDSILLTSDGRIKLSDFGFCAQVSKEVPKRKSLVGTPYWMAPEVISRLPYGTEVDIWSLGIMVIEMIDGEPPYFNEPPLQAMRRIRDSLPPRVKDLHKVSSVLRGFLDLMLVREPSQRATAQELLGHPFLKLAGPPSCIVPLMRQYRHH
Chain of CSNK1A1 (human) (P48729 whole entry, looked up): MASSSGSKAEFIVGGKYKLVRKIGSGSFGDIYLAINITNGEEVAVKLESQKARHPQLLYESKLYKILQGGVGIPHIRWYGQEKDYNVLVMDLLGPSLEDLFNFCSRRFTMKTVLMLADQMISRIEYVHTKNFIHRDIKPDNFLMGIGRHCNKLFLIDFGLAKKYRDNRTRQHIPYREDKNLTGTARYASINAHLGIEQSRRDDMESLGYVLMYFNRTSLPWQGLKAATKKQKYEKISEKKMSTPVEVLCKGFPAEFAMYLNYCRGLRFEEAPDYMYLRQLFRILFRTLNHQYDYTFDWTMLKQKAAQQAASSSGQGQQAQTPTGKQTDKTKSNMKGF

SMILES | residual activity [1] | residual activity [2] | residual activity [3] | residual activity [5] | residual activity [6] | residual activity [7] | residual activity [8] | residual activity [9] | residual activity [10] | residual activity [11] | residual activity [12] | residual activity [13] | residual activity [14] | residual activity [15] | residual activity [16] | residual activity [17] | residual activity [18] | residual activity [19] | residual activity [20] | residual activity [21] | other results
Cc1ccc(Nc2nccc(N(C)c3ccc4c(C)n(C)nc4c3)n2)cc1S(N)(=O)=O | 38.5% | 99.4% | 88.4% | 91.7% | 100% | 97.1% | 99.8% | 93.3% | 106% | 92.2% | 86.9% | 97% | 104% | 101% | 93.3% | 102% | 100% | 98% | 53.4% | 92% | residual activity [4]: 110%; residual activity [22]: 95.4%; residual activity [23]: 81.6%; residual activity [24]: 96.7%; residual activity [25]: 106%; residual activity [26]: 110%; residual activity [27]: 90.8%; residual activity [28]: 100%; residual activity [29]: 91.1%; residual activity [30]: 17%; residual activity [31]: 84.1%; residual activity [32]: 95.9%; residual activity [33]: 95.9%; residual activity [34]: 99.5%; residual activity [35]: 102%
Oc1cccc(-c2nc(N3CCOCC3)c3oc4ncccc4c3n2)c1 | 94.9% | 96.2% | 102% | 81.5% | 87.9% | 99.9% | 56.2% | 98.9% | 96.6% | 89.6% | 98.3% | 84.2% | 104% | 92.6% | 103% | 94.1% | 85.7% | 93.4% | 86.6% | 90.7% | residual activity [36]: 94.4%; residual activity [37]: 96.5%; residual activity [38]: 102%; residual activity [39]: 89.8%; residual activity [22]: 92.8%; residual activity [23]: 104%; residual activity [24]: 102%; residual activity [25]: 96%; residual activity [26]: 89.8%; residual activity [27]: 93.8%; residual activity [28]: 94.9%; residual activity [29]: 94.5%; residual activity [30]: 93.1%; residual activity [31]: 98.9%; residual activity [32]: 93.8%; residual activity [33]: 105%; residual activity [34]: 93%; residual activity [35]: 102%
CNC(=O)c1cc(Oc2ccc(NC(=O)Nc3ccc(Cl)c(C(F)(F)F)c3)cc2)ccn1 | 99.4% | 102% | 96.2% | 95.2% | 97.8% | 99.8% | 94.4% | 93.2% | 105% | 102% | 88.3% | 101% | 110% | 98.2% | 46.9% | 105% | 95.8% | 98.1% | 103% | 91.8% | residual activity [4]: 173%; residual activity [37]: 98.3%; residual activity [38]: 94.2%; residual activity [39]: 92.8%; residual activity [22]: 95.9%; residual activity [23]: 100%; residual activity [24]: 97.5%; residual activity [25]: 104%; residual activity [26]: 107%; residual activity [27]: 96.2%; residual activity [28]: 102%; residual activity [29]: 101%; residual activity [30]: 95.7%; residual activity [31]: 102%; residual activity [32]: 96%; residual activity [33]: 95.7%; residual activity [34]: 98.6%; residual activity [35]: 102%
